molecular target: T1, mGluR5 receptor (Sus scrofa, UniProt I3LUI7); assay: [3H]-MPEP binding in the mGluR5 receptor binding assay (pig brain homogenate); settings: 10 μM; pig brain homogenate; 5 nM [3H]-MPEP
T1 construct: from tissue; host or cells: pig brain halves without medulla, cerebellum and pons
Experimental: I. Method the Determination of the Inhibition of the [^3H]-MPEP Binding in the mGluR5 Receptor Binding Assay
Pig brain homogenate is prepared by homogenization (Polytron PT 3000, Kinematica AG, 10,000 revolutions per minute 90 seconds) of pig brain halves without medulla, cerebellum and pons in a buffer solution having a pH of 8.0 (30 mM of hepes, Sigma, order no. H3375+1 tablet of Complete to 100 ml, Roche Diagnostics, order no. 1836145) in a ratio of 1:20 (brain weight/volume) and differential centrifugation at 900×g and 40,000×g. In each case 450 μg of protein from brain homogenate are incubated with 5 nM [^3H]-MPEP (Tocris, order no. R1212) (MPEP=2-methyl-6-(3-methoxyphenyl)ethynylpyridine) and the compounds to be investigated (10 μM in the test) in a buffer solution (as above) in 250 μl incubation batches in 96-well microtiter plates at room temperature 60 min.
Thereafter, the batches are filtered with the aid of a Brandel cell harvester (Brandel, Robotic 9600 model) onto Unifilter plates with glass fiber filter mats (Perkin Elmer, order no. 6005177) and then rinsed with buffer solution (as above) 3 times with 250 μl per sample each time. The filter plates are then dried 60 min at 55° C. 30 μl Ultima Gold™ scintillator (Packard BioScience, order no. 6013159) are subsequently added per well and, after 3 hours, the samples are measured on a β-counter (Mikrobeta, Perkin Elmer). The non-specific binding is determined by addition of 10 μM of MPEP (Tocris, order no. 1212).

T1 sequence (I3LUI7 19-1212): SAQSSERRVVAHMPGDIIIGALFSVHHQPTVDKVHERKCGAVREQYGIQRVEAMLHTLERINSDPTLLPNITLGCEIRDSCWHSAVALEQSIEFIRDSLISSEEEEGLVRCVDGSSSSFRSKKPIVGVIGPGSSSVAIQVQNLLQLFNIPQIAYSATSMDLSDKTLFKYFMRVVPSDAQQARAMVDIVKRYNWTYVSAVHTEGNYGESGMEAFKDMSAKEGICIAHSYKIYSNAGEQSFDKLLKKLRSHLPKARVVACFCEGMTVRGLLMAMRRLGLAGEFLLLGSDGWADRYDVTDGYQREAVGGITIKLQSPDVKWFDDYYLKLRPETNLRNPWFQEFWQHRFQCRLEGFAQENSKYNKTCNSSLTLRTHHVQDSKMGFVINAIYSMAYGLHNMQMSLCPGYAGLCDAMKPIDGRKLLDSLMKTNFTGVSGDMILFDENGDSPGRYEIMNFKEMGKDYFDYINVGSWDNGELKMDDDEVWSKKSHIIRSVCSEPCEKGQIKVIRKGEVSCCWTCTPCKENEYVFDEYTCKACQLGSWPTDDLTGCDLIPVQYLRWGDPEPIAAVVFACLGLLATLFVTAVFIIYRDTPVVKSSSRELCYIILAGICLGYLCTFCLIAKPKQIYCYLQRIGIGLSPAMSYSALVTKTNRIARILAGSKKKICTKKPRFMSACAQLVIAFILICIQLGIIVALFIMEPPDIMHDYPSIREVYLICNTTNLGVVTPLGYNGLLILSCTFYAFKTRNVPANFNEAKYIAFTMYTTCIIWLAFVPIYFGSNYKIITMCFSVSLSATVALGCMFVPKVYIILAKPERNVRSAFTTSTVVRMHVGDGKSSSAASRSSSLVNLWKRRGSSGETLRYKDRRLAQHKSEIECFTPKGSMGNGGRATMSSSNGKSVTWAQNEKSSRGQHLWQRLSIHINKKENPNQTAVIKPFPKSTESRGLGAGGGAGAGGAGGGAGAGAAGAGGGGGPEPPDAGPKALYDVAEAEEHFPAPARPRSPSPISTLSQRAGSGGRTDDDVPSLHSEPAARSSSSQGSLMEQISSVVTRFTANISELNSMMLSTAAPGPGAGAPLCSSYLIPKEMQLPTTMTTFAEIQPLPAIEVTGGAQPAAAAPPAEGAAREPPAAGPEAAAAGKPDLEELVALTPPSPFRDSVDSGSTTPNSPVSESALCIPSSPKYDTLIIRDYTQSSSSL

| mGluR5-receptor (% inhibition 10 μM) in pigs [%] | SMILES |
| --- | --- |
| 82 | O=C(C#Cc1ccc2ccccc2c1)N1CCN(c2nccs2)CC1 [Example AAA38, 4-(Thiazol-2-yl)-1-(3-naphth-2-ylpropiolyl)piperazine] |
| 72 | O=C(C#CC1CCCCC1)N1CCN(c2nccs2)CC1 [Example AAA69, 4-(Thiazol-2-yl)-1-(3-cyclohexylpropiolyl)piperazine] |
| 88 | COCc1cccc(C#CC(=O)N2CCN(c3nccs3)CC2)c1 [Example AAA42, 4-(Thiazol-2-yl)-1-(3-(3-methoxymethylphenyl)propiolyl)piperazine] |
| 25 | O=C(C#Cc1ccc(F)cc1)N1CCN(c2nc(-c3ccccc3)ns2)CC1 [CCC5, 4-(3-Phenyl-1,2,4-thiadiazol-5-yl)-1-(3-(4-fluorophenyl)propiolyl)piperazine] |
| 31 | CS(=O)(=O)c1cccc(C#CC(=O)N2CCN(c3nccs3)CC2)c1 [Example AAA00116, 4-(Thiazol-2-yl)-1-(3-(3-methylsulfonylphenyl)propiolyl)piperazine] |
| 72 | C[C@H]1CN(c2nccs2)CCN1C(=O)C#Cc1ccccc1 [Example AAA64, (S)-2-Methyl-4-(thiazol-2-yl)-1-(3-phenylpropiolyl)piperazine] |
| 43 | COC(=O)c1cccc(C#CC(=O)N2CCN(c3nccs3)CC2)c1 [Example AAA49, 4-(Thiazol-2-yl)-1-(3-(3-carboxyphenyl)propiolyl)piperazine methyl ester] |
| 30 | CC(C)(C)c1csc(N2CCN(C(=O)C#Cc3ccc(N)cc3)CC2)n1 [Example AAA00107, 4-(4-tert-Butylthiazol-2-yl)-1-(3-(4-aminophenyl)propiolyl)piperazine] |
| 25 | Cc1ccccc1C#CC(=O)N1CCN(c2nc(-c3ccc(F)cc3)ns2)CC1 [CCC8, 4-(3-(4-Fluorophenyl)-1,2,4-thiadiazol-5-yl)-1-(3-(tol-2-yl)propiolyl)piperazine] |
| 33 | Cc1ccccc1C#CC(=O)N1CCN(c2nccs2)CC1.Cl [Example AAA53, 4-(Thiazol-2-yl)-1-(3-(2-tolyl)propiolyl)piperazine hydrochloride] |
| 72 | CN(C)C(=O)c1cnc(N2CCN(C(=O)C#Cc3ccccc3)CC2)s1 [Example AAA81, 4-(5-Dimethylaminocarbonylthiazol-2-yl)-1-(3-phenylpropiolyl)piperazine] |
| 91 | O=Cc1cccc(C#CC(=O)N2CCN(c3nccs3)CC2)c1 [Example AAA30, 4-(Thiazol-2-yl)-1-(3-(3-formylphenyl)propiolyl)piperazine] |
| 93 | O=C(C#Cc1ccccc1)N1CCN(c2nc(Cc3ccc(F)cc3)ns2)CC1 [Example AAA85, 4-(3-(4-Fluorobenzyl)-1,2,4-thiadiazol-5-yl)-1-(3-phenylpropiolyl)piperazine] |
| 40 | CCOC(=O)c1cccc(C#CC(=O)N2CCN(c3nccs3)CC2)c1 [Example AAA3, 4-(Thiazol-2-yl)-1-(3-(3-carboxyphenyl)propiolyl)piperazine ethyl ester] |
| 81 | O=C(C#Cc1ccccc1)N1CCN(c2nccs2)CC1c1ccccc1 (centres unmarked) [Example AAA72, 2-Phenyl-4-(thiazol-2-yl)-1-(3-phenylpropiolyl)piperazine] |
| 31 | Cc1cccc(C#CC(=O)N2CCN(c3nccs3)CC2)c1F [Example AAA00111, 4-(Thiazol-2-yl)-1-(3-(2-fluoro-3-methylphenyl)propiolyl)piperazine] |

| mGluR5-receptor (% inhibition 10 μM) in pigs [%] | SMILES |
| --- | --- |
| 52 | O=C(C#Cc1ccccc1)N1CCN(c2nc(C(F)(F)F)cs2)CC1 [Example AAA93, 4-(4-Trifluoromethylthiazol-2-yl)-1-(3-phenylpropiolyl)piperazine] |
| 70 | O=C(C#Cc1ccccc1Cl)N1CCN(c2nccs2)CC1 [Example AAA23, 4-(Thiazol-2-yl)-1-(3-(2-chlorophenyl)propiolyl)piperazine] |
| 33 | CC(C)(C)c1nsc(N2CCN(C(=O)C#Cc3cccs3)CC2)n1 [CCC16, 4-(3-tert-Butyl-1,2,4-thiadiazol-5-yl)-1-(3-(thiophen-2-yl)propiolyl)piperazine] |
| 65 | O=C(C#Cc1ccccc1)N1CCN(c2nc(C(F)(F)F)ns2)CC1 [Example AAA00105, 4-(3-Trifluoromethyl-1,2,4-thiadiazol-5-yl)-1-(3-phenylpropiolyl)piperazine] |
| 83 | O=C(C#Cc1cccc(O)c1)N1CCN(c2nccs2)CC1 [Example AAA43, 4-(Thiazol-2-yl)-1-(3-(3-hydroxyphenyl)propiolyl)piperazine] |
| 40 | CC(C)c1cccc(C#CC(=O)N2CCN(c3nccs3)CC2)c1 [Example AAA36, 4-(Thiazol-2-yl)-1-(3-(3-isopropylphenyl)propiolyl)piperazine] |
| 83 | O=C(C#Cc1ccccc1)N1CCN(c2ncns2)CC1 [Example AAA00103, 4-(1,2,4-Thiadiazol-5-yl)-1-(3-phenylpropiolyl)piperazine] |
| 91 | Nc1cccc(C#CC(=O)N2CCN(c3nccs3)CC2)c1 [Example AAA7, 4-(Thiazol-2-yl)-1-(3-(3-aminophenyl)propiolyl)piperazine] |
| 94 | Cc1cnc(N2CCN(C(=O)C#Cc3ccccc3)CC2)s1 [Example AAA88, 4-(5-Methylthiazol-2-yl)-1-(3-phenylpropiolyl)piperazine] |
| 58 | O=C(C#Cc1ccccc1)N1CCN(c2ncc(Cl)s2)CC1 [Example AAA95, 4-(5-Chlorothiazol-2-yl)-1-(3-phenylpropiolyl)piperazine] |
| 82 | O=C(C#Cc1cccc([N+](=O)[O-])c1)N1CCN(c2nccs2)CC1 [Example AAA28, 4-(Thiazol-2-yl)-1-(3-(3-nitrophenyl)propiolyl)piperazine] |
| 89 | CC1CN(c2nccs2)CCN1C(=O)C#Cc1ccccc1 (centres unmarked) [Example AAA63, 2-Methyl-4-(thiazol-2-yl)-1-(3-phenylpropiolyl)piperazine] |
| 41 | Cc1ccc(C#CC(=O)N2CCN(c3nccs3)CC2)cc1.Cl [Example AAA55, 4-(Thiazol-2-yl)-1-(3-(4-tolyl)propiolyl)piperazine hydrochloride] |
| 54 | Nc1ccccc1C#CC(=O)N1CCN(c2nccs2)CC1 [Example AAA6, 4-(Thiazol-2-yl)-1-(3-(2-aminophenyl)propiolyl)piperazine] |
| 50 | O=C(C#Cc1cccnc1)N1CCN(c2nccs2)CC1 [Example AAA33, 4-(Thiazol-2-yl)-1-(3-pyrid-3-ylpropiolyl)piperazine] |
| 28 | O=C(C#Cc1ccccc1F)N1CCN(c2nc(-c3ccccc3)ns2)CC1 [CCC3, 4-(3-Phenyl-1,2,4-thiadiazol-5-yl)-1-(3-(2-fluorophenyl)propiolyl)piperazine] |

| SMILES | mGluR5-receptor (% inhibition 10 μM) in pigs [%] |
| --- | --- |
| O=C(C#Cc1cccc(-c2ccccc2)c1)N1CCN(c2nccs2)CC1 [Example AAA37, 4-(Thiazol-2-yl)-1-(3-biphenyl-3-ylpropiolyl)piperazine] | 45 |

same assay, conditions: Table II; unit inferred

| IC50 [nM] | SMILES |
| --- | --- |
| 1240 | Cn1ccc2ccc(C#CC(=O)N3CCN(c4nccs4)CC3)cc21 [Example AAA00108, 4-(Thiazol-2-yl)-1-(3-(1-Methyl-indol-6-yl)propiolyl)piperazine] |
| 720 | O=C(C#Cc1ccccc1)N1CCN(c2nc(Br)cs2)CC1 [Example AAA97, 4-(4-Bromothiazol-2-yl)-1-(3-phenylpropiolyl)piperazine] |
| 360 | O=C(C#Cc1ccccc1)N1CCN(c2ncc(Br)s2)CC1 [Example AAA96, 4-(5-Bromothiazol-2-yl)-1-(3-phenylpropiolyl)piperazine] |
| 38 | C=Cc1cccc(C#CC(=O)N2CCN(c3nccs3)CC2)c1 [Example AAA31, 4-(Thiazol-2-yl)-1-(3-(3-ethenylphenyl)propiolyl)piperazine] |
| 38 | CCC1CN(c2nccs2)CCN1C(=O)C#Cc1ccccc1 (centres unmarked) [Example AAA71, 2-Ethyl-4-(thiazol-2-yl)-1-(3-phenylpropiolyl)piperazine] |
| 830 | O=C(C#Cc1ccccc1F)N1CCN(c2nccs2)CC1 [Example AAA21, 4-(Thiazol-2-yl)-1-(3-(2-fluorophenyl)propiolyl)piperazine] |
| 26 | C#Cc1cccc(C#CC(=O)N2CCN(c3nccs3)CC2)c1 [Example AAA00117, 4-(Thiazol-2-yl)-1-(3-(3-ethynylphenyl)propiolyl)piperazine] |
| 260 | CCc1cccc(C#CC(=O)N2CCN(c3nccs3)CC2)c1 [Example AAA00120, 4-(Thiazol-2-yl)-1-(3-(3-ethylphenyl)propiolyl)piperazine] |

Source: patent publication US7300939B2, “Substituted 1-propiolylpiperazine compounds, their preparation and use” (Gruenenthal GmbH, priority 2005, dated 2007)
